Values quoted from earlier work as cited in US20100166856A1, “PHARMACEUTICAL COMPOSITION IN THE FORM OF COATED MICROSPHERES FOR THE MODIFIED RELEASE OF A MUSCLE RELAXANT AND AN NSAID” (LABORATORIOS SENOSIAIN S.A. DE C.V., priority 2006, published 2010).
Values belong to the compound of their own block, whether it stands above or below them.

Columns and labels:
[1] = 22.5 mg of meloxicam
[2] = after administration
[3] = tested on: metabolism of tizanidine; details: combination of tizanidine with rofecoxib

- time at which maximum plasma concentration is reached [2]: 4 to 5 h
- time of second concentration peak ([2]; indicates gastrointestinal re-circulation): 12 to 14 h
Structure (SMILES): Cc1cnc(NC(=O)C2=C(O)c3ccccc3S(=O)(=O)N2C)s1 [meloxicam]
- effect of higher dose [1]: only an increase in gastrointestinal adverse effect was observed

- pharmacokinetic interaction with tizanidine [3]: inhibits the metabolism of tizanidine
Structure (SMILES): CS(=O)(=O)c1ccc(C2=C(c3ccccc3)C(=O)OC2)cc1 [rofecoxib]

- half-life time (after oral administration): approximately 2.5 hours
- excretion in feces (in vivo): about 20%
- excretion in urine (in vivo): 60%
Structure (SMILES): Clc1ccc2nsnc2c1NC1=NCCN1 [tizanidine]
